In patent US9315451B2, “Tetracycline compounds” (priority 2009, dated 2016):
Like-named read-outs stand apart in the source and are kept apart here.

Tests used:
Monkey PK = format: in vivo; conditions: cynomolgus monkey, plasma, cynomolgus monkeys
Description: Compounds S24-9-23 and S16-10-161 were evaluated in 3 non-naïve cynomolgus monkeys. Each animal received a single IV dose of 1 mg/kg and after a 7-day washout, received a single PO dose of 10 mg/kg. Nine to ten plasma samples were drawn for each dosing route up to 24 hours into heparin-coated vacutainer tubes. Dose formulations were verified with a 5-point calibration curve. The plasma concentration of the compound was quantified by LC/MS/MS using an internal standard.

[1] = Pharmacokinetic studies in rats; format: in vivo; conditions: rat, plasma, male Sprague Dawley rats, fasted; for clearance: read-out: Cl, IV Rat PK; for bioavailability: oral 10 mg/kg vs IV 1 mg/kg, read-out: % F (oral bioavailability), Oral Rat PK; for Cmax: read-out: Cmax, IV Rat PK
Description: Pharmacokinetic Studies in Rats Test compounds were evaluated in fasted (no food for 18 hours prior to dosing) male Sprague Dawley rats (3 animals per group) by administration of 1 mg/kg intravenously into the jugular vein and […] by oral gavage. Ten plasma samples were drawn for each dosing route up to 24 hours into heparin-coated vacutainer tubes. The plasma concentrations of the test compounds were quantified by LC/MS/MS using an internal standards. WinNONLIN was used to determine PK parameters ±standard deviation (AUC, Cmax, CL, Vss and % oral bioavailabilty (% F) and are set forth in Table F.

[2] = system: S. aureus Smith (ATCC 13709); experiment: Mouse systemic infection (septicemia) model, S. aureus Smith; format: in vivo; conditions: Staphylococcus aureus, CD-1 female mice; for responders at 3 mg/kg: ATCC13709, iv, IV 3 mg/kg one hour post infection, read-out: SA Smith septicemia survival IV (3 mg/kg); for responders at 3 mg/kg / responders at 30 mg/kg: 48 h, survival at 48 hours; for responders at 30 mg/kg: ATCC13709, po, PO 30 mg/kg one hour post infection, read-out: SA Smith septicemia survival PO (30 mg/kg); for ED50: ATCC13709, dose that prevents 50% of the mice from death, 48 hours
Summary of the method: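 Female CD-1 mice (18-22 g) infected IP with an inoculum lethal to all within 24–48 h. Compound given 1 h post-infection IV ([…]) or PO ([…]), typically six mice per dose group; survival followed for 48 h and PD50 (mg/kg) derived from 48 h survival.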

[3] = system: K. pneumoniae ESBL Isolate KP453; experiment: Murine kidney infection model, K. pneumoniae ESBL isolate KP453; format: in vivo; conditions: BALB/c mice; for log reduction at 50 mg/kg: Klebsiella pneumoniae, po, 36 h, PO 50 mg/kg at 9 and 24 hours post infection, read-out: KP453 ESBL UTI PO, log10 reduction in CFUs in the kidney versus untreated controls
Description: (§1) Kidney Infection Models for Uropathogenic E. coli EC200 and K. pneumoniae ESBL Isolate KP453
Compounds were also tested in BALB/c murine kidney infection model challenged with levofloxacin-resistant, ESBL^+ strain KP453 via intravenous injection with 2% carageenen. At 9 and 24 hours post infection mice were treated orally with 50 mg/kg of test compound. For IV administration, test compounds were dosed at 20 mg/kg. At 36 hours following initiation of treatment, mice were euthanized and bacterial reduction in the kidney was quantified by plating homogenates. Results are reported in Table D as log10 reduction in colony forming units (CFUs) in the kidney versus untreated controls (receiving no test compound).

[4] = system: Uropathogenic E. coli EC200; experiment: Murine kidney infection model, uropathogenic E. coli EC200; format: in vivo; conditions: BALB/c mice
Description: as §1
Compounds were tested in a BALB/c murine kidney infection model challenged with tetracycline-resistant E. coli strain uropathogenic […] via intravenous injection. […] For IV administration test compound was dosed at 3 mg/kg. Thirty-six hours following initiation of treatment, mice were euthanized and bacterial reduction in the kidney was quantified by plating kidney homogenates. Results are reported in Table D as log10 reduction in colony forming units (CFUs) in the kidney versus untreated controls (receiving no test compound).

[5] = system: tetracycline-resistant tet(M) S. pneumoniae strain SP160; experiment: Neutropenic respiratory infection model for S. pneumoniae (murine lung infection); format: in vivo; conditions: neutropenic BALB/c mice, SP160 intranasal, 30 mg/kg orally at 2 and 12 hours post-infection, lung CFU at 24 hours
Description: Neutropenic Respiratory Infection Models for S. pneumoniae
Compounds were tested in a neutropenic BALB/c murine model of lung infection challenged with tetracycline-resistant tet(M) S. pneumoniae strain SP160. Mice were made neutropenic by pre-treatment with cyclophosphamide and infected with SP160 via intranasal administration. Mice were dosed orally with 30 mg/kg compound at 2 and 12 hours post-infection. At 24 hours following initiation of treatment, mice were euthanized and bacterial reduction in the lung was quantified by plating lung homogenates. Data was recorded as log10 reduction in lung colony forming units versus an untreated control group.

[6] = system: tetracycline-resistant tet(M) MRSA strain SA191; experiment: Neutropenic respiratory infection model for MRSA (murine lung infection); format: in vivo, Staphylococcus aureus; conditions: neutropenic BALB/c mice, SA191 intranasal, 50 mg/kg orally at 2 and 12 hours, lung CFU at 24 hours
Description: Neutropenic Respiratory Infection Model for MRSA
Compounds were tested in a neutropenic BALB/c murine model of lung infection challenged with a tetracycline-resistant tet(M) MRSA strain SA191 infected via intranasal administration. At 2 and 12 hours mice were dosed orally with 50 mg/kg compound. At 24 hours following initiation of treatment, mice were euthanized and bacterial reduction in the lung was quantified by plating lung homogenates. Data was recorded as log10 reduction in lung colony forming units versus an untreated control group.

[7] = IV 1 mg/kg, read-out: AUC, IV Rat PK
[8] = oral gavage 10 mg/kg, read-out: AUC, Oral Rat PK
[9] = PO, read-out: SA Smith septicemia PD50 PO

What does the source list for `COc1c(CN2CCCCC2)cc(O)c2c1C[C@H]1C[C@H]3[C@H](N(C)C)C(O)=C(C(N)=O)C(=O)[C@@]3(O)C(O)=C1C2=O` [Compound S24-9-23]?
bioavailability (Monkey PK; PO 10 mg/kg vs IV 1 mg/kg, read-out: % F (oral bioavailability), monkey): 36.8%; clearance (Monkey PK; single IV dose of 1 mg/kg, read-out: Cl, IV, monkey (converted)): 2.4 mL/min/kg; Vd (Monkey PK; single IV dose of 1 mg/kg, read-out: Vdss, IV, monkey): 3.4 L/kg; AUC (Monkey PK; single IV dose of 1 mg/kg, read-out: AUC, IV, monkey): 7070 ng·h/mL; Cmax (Monkey PK; single IV dose of 1 mg/kg, read-out: Cmax, IV, monkey): 1370 ng/mL; AUC (Monkey PK; single PO dose of 10 mg/kg, read-out: AUC, oral, monkey): 22800 ng·h/mL; Cmax (Monkey PK; single PO dose of 10 mg/kg, read-out: Cmax, oral, monkey): 1350 ng/mL; clearance ([1]; IV 1 mg/kg): 9.26 mL/min/kg; bioavailability [1]: 12.2%; AUC [1, 7]: 1830 ng·h/mL; Cmax ([1]; IV 1 mg/kg): 795 ng/mL; AUC [1, 8]: 2230 ng·h/mL; responders at 3 mg/kg [2]: 100%; responders at 30 mg/kg [2]: 100%; KP453 ESBL UTI IV, log10 reduction in CFUs in the kidney versus untreated controls ([3]; IV 20 mg/kg): −2.95 log10; log reduction at 50 mg/kg [3]: 2.93; EC200 UTI IV, log10 reduction in CFUs in the kidney versus untreated controls ([4]; IV, @ 5 mpk in cells (column head 3 mg/kg)): @ 5 mpk −4.34 log10; log reduction at 2 mg/kg ([4]; Escherichia coli, po, 36 h, PO 2 mg/kg at 12 and 24 hours post infection, read-out: EC200 UTI PO, log10 reduction in CFUs in the kidney versus untreated controls): 2.99

Which “Bacterial Reduction in the Lung (Log10 change from 24 hour control)” value [5] does the source give for `C[C@@H](NCc1cc(O)c2c(c1N(C)C)C[C@H]1C[C@H]3[C@H](N(C)C)C(O)=C(C(N)=O)C(=O)[C@@]3(O)C(O)=C1C2=O)C(C)(C)C` [Compound S16-10-79] here?
Its value is −4.31 Log10.

What about the responders at 3 mg/kg [2] of the same molecule?
Its responders at 3 mg/kg is 100%.

What about the responders at 30 mg/kg [2] of the same molecule?
Its responders at 30 mg/kg is 100%.

What about the “Bacterial Reduction in the Lung (Log10 change from 24 hour control)” value [6] of the same molecule?
The value was −1.27 Log10.

With `CCC(C)(C)N(C)Cc1cc(O)c2c(c1F)C[C@H]1C[C@H]3[C@H](N(C)C)C(O)=C(C(N)=O)C(=O)[C@@]3(O)C(O)=C1C2=O` [Compound S2-4-28] as the molecule, how does the clearance ([1]; IV 1 mg/kg) read?
Its clearance is 17.6 mL/min/kg.

What about the bioavailability [1] of the same molecule?
The bioavailability was 44.7%.

What about the AUC [1, 7] of the same molecule?
Its AUC is 970 ng·h/mL.

And the Cmax ([1]; IV 1 mg/kg)?
Its Cmax is 170 ng/mL.

What about the AUC [1, 8] of the same molecule?
Its AUC is 4380 ng·h/mL.

What about the “Bacterial Reduction in the Lung (Log10 change from 24 hour control)” value [5] of the same molecule?
Its value is −0.06 Log10.

And the responders at 3 mg/kg [2]?
The responders at 3 mg/kg was 100%.

And the responders at 30 mg/kg [2]?
Its responders at 30 mg/kg is 100%.

And the ED50 ([2]; IV, read-out: SA Smith septicemia PD50 IV)?
The ED50 was 0.62 mg/kg.

What about the ED50 [2, 9] of the same molecule?
The ED50 was 3 mg/kg.

With `CN(C)[C@@H]1C(O)=C(C(N)=O)C(=O)[C@@]2(O)C(O)=C3C(=O)c4c(O)cc(CN5CCCCCC5)c(Cl)c4C[C@H]3C[C@@H]12` [Compound S15-13-188] as the molecule, how does the “Bacterial Reduction in the Lung (Log10 change from 24 hour control)” value [5] read?
The value was −0.22 Log10.

What about the responders at 3 mg/kg [2] of the same molecule?
The responders at 3 mg/kg was 100%.

And the responders at 30 mg/kg [2]?
Its responders at 30 mg/kg is 100%.

What about the ED50 [2, 9] of the same molecule?
The ED50 was 8.3 mg/kg.

And the log reduction at 50 mg/kg [3]?
The log reduction at 50 mg/kg was 1.55.

And the log reduction at 3 mg/kg ([4]; Escherichia coli, po, 36 h, PO @ 3 mpk, read-out: EC200 UTI PO, log10 reduction in CFUs in the kidney versus untreated controls)?
Its log reduction at 3 mg/kg is 3.48.
